# Patent US20060035844A1, “Preventive or remedy for diseases caused by hyperglycemia” (priority 2002, published 2006)
# Assays:
# [1] = molecular target: T1, rat SGLT1 (Rattus norvegicus, UniProt P53790); test: Assay for inhibitory effects on rat SGLT1 activity (uptake of methyl-α-D-glucopyranoside in CrS1 cells); format: cell-based; settings: CHO-K1 cells stably expressing rat SGLT1 (CrS1), 1 mM α-MG, 37° C., 1 hour; read-out: IC50 value, inhibition of uptake of methyl-α-D-glucopyranoside
# T1 construct: expressed in transfected cells
# T1 sequence (P53790 1-665): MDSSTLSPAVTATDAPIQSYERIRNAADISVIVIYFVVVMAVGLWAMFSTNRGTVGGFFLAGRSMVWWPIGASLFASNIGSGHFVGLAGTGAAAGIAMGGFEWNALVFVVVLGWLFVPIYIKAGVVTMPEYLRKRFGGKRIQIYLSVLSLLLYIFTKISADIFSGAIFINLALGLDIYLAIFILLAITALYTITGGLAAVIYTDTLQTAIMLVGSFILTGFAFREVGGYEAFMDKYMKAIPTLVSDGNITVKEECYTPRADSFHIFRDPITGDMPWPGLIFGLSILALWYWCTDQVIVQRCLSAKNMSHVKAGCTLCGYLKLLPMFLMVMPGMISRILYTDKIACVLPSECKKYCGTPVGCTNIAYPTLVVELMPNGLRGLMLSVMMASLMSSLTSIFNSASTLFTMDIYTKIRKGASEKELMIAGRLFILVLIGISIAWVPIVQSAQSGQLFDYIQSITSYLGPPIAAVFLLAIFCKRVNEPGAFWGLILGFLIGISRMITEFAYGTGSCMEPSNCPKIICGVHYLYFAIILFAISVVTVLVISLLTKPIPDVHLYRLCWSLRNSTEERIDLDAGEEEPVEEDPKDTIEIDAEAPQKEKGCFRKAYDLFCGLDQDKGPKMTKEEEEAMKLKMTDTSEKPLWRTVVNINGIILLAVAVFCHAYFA
# Protocol: A test compound was dissolved in dimethyl sulfoxide, and then appropriately diluted with distilled water. The test compound solution was added to the uptake buffer containing 1 mM α-MG, and designated as a measurement buffer. For the control group, the measurement buffer without any test compound was prepared. […] After repeating the same treatment, the pre-treatment buffer was removed. To each well was added 75 μL of the measurement buffer or the basal uptake buffer was added and incubated at 37° C. for 1 hour. After removing the measurement buffer, cells were washed twice with 180 μL per well of the washing buffer (the basal uptake buffer containing 10 mM non-labeled α-MG). The cells were solubilized by 75 μL per well of 0.2 mol/L sodium hydroxide. The cell lysates were transferred into PicoPlates (Packard), and then added 150 μL of MicroScint-40 (Packard) and mixed. Radioactivity was measured by means of micro-scintillation counter TopCount (Packard).
# [2] = system: male Zucker fa/fa rats; test: Effects after mixed-carbohydrate loading with or without sucrose (plasma glucose AUC 0-3 h); format: in vivo, rat; settings: Zucker fatty fa/fa rats, oral; Example 1 0.5 mg/kg, Example 2 0.3 mg/kg, acarbose 5 mg/kg, miglitol 5 mg/kg, phlorizin 100 mg/kg; 1.6 g glucose/kg load
# Description: Next, in order to investigate whether effects caused by fructose ingestion are present, the present inventors have performed the following test using Zucker fatty fa/fa rats, model animals of type-2 diabetes. […] In the fructose-containing diet group, mixed carbohydrate (starch: sucrose: lactose=6:3:1), which corresponds approximately to carbohydrates in regular diets, was loaded. (e.g., see the following Reference 35). On the other hand, in the fructose-free diet group, mixed carbohydrate substituted the corresponding amount of starch for the amount of glucose contained within sucrose, was loaded, because sucrose is a disaccharide and is digested to glucose and fructose in the gastrointestinal tract. Then, comparison study of each diet was performed.
# The FIG. 1 is a graph showing hypoglycemic effects of each drug caused by fructose ingestion.
# Effects of SGLT1 Inhibitors, an SGLT Inhibitor and α-glucosidase Inhibitors After Mixed-Carbohydrate Containing Sucrose Loading
# Immediately after the compound administration, mixed-carbohydrate with sucrose (starch:sucrose:lactose=6:3:1) or without sucrose (starch:lactose=7.5:1) was loaded at a dose of 1.6 g glucose/kg. The blood was collected immediately before and after the administration with the time course (0, 0.5, 1, 2, 3 hours). The plasma was collected to quantify the plasma glucose concentration. The area under the curve of plasma glucose concentration from 0 to 3 hours was calculated by the trapezoidal method. Statistical analysis was T test between existence and nonexistence of sucrose in mixed-carbohydrate solution on each compound.
# [3] = system: male Wistar rats; test: Effects of an SGLT1 inhibitor on absorption of fructose (fructose tolerance test, residual fructose in the gastrointestinal tract); format: in vivo, rat
# Protocol: Effects of an SGLT1 Inhibitor on Absorption of Fructose
# Immediately after the administration, 0.2 g/kg of fructose was loaded. After 30 minutes, rats were sacrificed with exsanguination under ether anesthesia and then the contents of stomach and small intestine were collected with 10 mL ice-cold saline. Fructose concentration was measured by fructose assay kit (D-glucose/D-Fructose; Roche diagnostics) and calculated residual fructose (% of dose) in the gastrointestinal tract. Statistical analysis between control and treated groups are calculated using T test.
IC50 [1],SMILES,Reduction of plasma glucose concentration after sucrose-containing diet compared with sucrose-free diet (in words) [2],"Residual fructose (% of dose) in the gastrointestinal tract ([3]; 0.3 mg/kg oral, 0.2 g/kg fructose load, after 30 minutes, stomach and small intestine contents, control 11.8 ± 2.1)","Inhibitory effect on absorbing fructose (in words) ([3]; fructose tolerance test, residual fructose in the gastrointestinal tract)"
0.139 µM,"Cc1cc(O)cc(O[C@@H]2O[C@H](CO)[C@@H](O)[C@H](O)[C@H]2O)c1Cc1ccc(NC(=O)NCc2cccnc2)cc1 [Example 1, 5-Hydroxy-3-methyl-2-{4-[3-(3-pyridylmethyl)ureido]benzyl}-phenyl β-D-glucopyranoside]",significantly reduced plasma glucose concentration,–,–
0.0381 µM,"Cc1cc(OCCNC(=N)N)ccc1Cc1c(O[C@@H]2O[C@H](CO)[C@@H](O)[C@H](O)[C@H]2O)n[nH]c1C(C)C [Example 2, 3-(β-D-Glucopyranosyloxy)-4-{[4-(2-guanidinoethoxy)-2-methylphenyl]methyl}-5-isopropyl-1H-pyrazole]",significantly reduced plasma glucose concentration,12.2 ± 2.6%,substantially show no inhibitory effect on absorbing fructose
–,"O=C(CCc1ccc(O)cc1)c1c(O)cc(O)cc1O[C@@H]1O[C@H](CO)[C@@H](O)[C@H](O)[C@H]1O [Phlorizin, reference compound]",did not reduce plasma glucose concentration,–,–
–,"OCCN1C[C@H](O)[C@@H](O)[C@H](O)[C@H]1CO [miglitol, reference compound]",did not reduce plasma glucose concentration,–,–
